According to patent US12685312B2, “Sulfonamide apyrase inhibitors” (Texas Crop Science, Inc., priority 2022, dated 2026):

The compounds below were run on apyrase (assay: Screen for apyrase inhibitors (Method 1, in vitro phosphate-release absorbance assay)). Details: inhibitor conc at 1 mM stock, 1 hr room temperature, absorbance 630 nm; rounded average of two assay results.
Assay type: biochemical
How it was run: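 Phosphate-release colorimetric assay (Windsor method) in 60 mM Hepes, 3 mM MgCl2, 3 mM CaCl2, 3 mM ATP, pH 6.5, with compound or DMSO control added. Released phosphate developed with ammonium molybdate and ascorbic acid/TCA, then stopped with citrate/acetic acid.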

% Inhibition of Apyrase | SMILES
34% | O=C(Nc1ccc(S(=O)(=O)Nc2cccc(C(F)(F)F)c2)cc1)c1cccc(F)c1 [I-998, 3-fluoro-N-(4-(N-(3-(trifluoromethyl)phenyl)sulfamoyl)phenyl) benzamide]
66% | COc1cc(Cl)c(C)cc1NC(=O)c1ccccc1S(=O)(=O)N(C)c1ccccc1 [I-350, N-(4-chloro-2-methoxy-5-methylphenyl)-2-(N-methyl-N-phenylsulfamoyl)benzamide]
55% | CN(c1ccccc1)S(=O)(=O)c1cccc(NC(=O)c2cnc3n(c2=O)CCS3)c1 [I-732, N-(3-(N-methyl-N-phenylsulfamoyl)phenyl)-5-oxo-2,3-dihydro-5H-thiazolo[3,2-a]pyrimidine-6-carboxamide]
58% | COc1ccccc1NS(=O)(=O)c1cccc(C(=O)Nc2cccc([N+](=O)[O-])c2)c1 [I-268, 3-(N-(2-methoxyphenyl)sulfamoyl)-N-(3-nitrophenyl)benzamide]
69% | COc1ccc([N+](=O)[O-])cc1NS(=O)(=O)c1ccc(C(=O)Nc2ccc(Cl)cc2)cc1 [I-382, N-(4-chlorophenyl)-4-(N-(2-methoxy-5-nitrophenyl)sulfamoyl)benzamide]
55% | O=C(Nc1cccc(C(F)(F)F)c1)c1cccc(NS(=O)(=O)c2cccs2)c1 [I-642, 3-(thiophene-2-sulfonamido)-N-(3-(trifluoromethyl)phenyl)benzamide]
57% | Cc1ccc(NC(=O)c2ccc(NS(=O)(=O)c3ccc(F)c(F)c3)cc2)cc1F [I-924, 4-((3,4-difluorophenyl)sulfonamido)-N-(3-fluoro-4-methylphenyl)benzamide]
34% | NC(=O)C1CCCN(C(=O)c2cccc(S(=O)(=O)Nc3ccc(Br)cc3)c2)C1 (stereo not drawn) [I-282, 1-(3-(N-(4-bromophenyl)sulfamoyl)benzoyl)piperidine-3-carboxamide]
48% | COc1ccccc1NC(=O)c1ccc(NS(=O)(=O)c2cccc(Cl)c2Cl)cc1 [I-943, 4-((2,3-dichlorophenyl)sulfonamido)-N-(2-methoxyphenyl)benzamide]
22% | CC(=O)c1cccc(NS(=O)(=O)c2cc(C(=O)Nc3cccc([N+](=O)[O-])c3)ccc2C)c1 [I-29, 3-(N-(3-acetylphenyl)sulfamoyl)-4-methyl-N-(3-nitrophenyl)benzamide]
60% | O=C(Nc1ccc2c(c1)CCC2)c1ccc(NS(=O)(=O)c2ccc3c(c2)OCCO3)cc1 [I-910, N-(2,3-dihydro-1H-inden-5-yl)-4-((2,3-dihydrobenzo[b][1,4]dioxine)-6-sulfonamido)benzamide]
48% | COc1ccccc1NS(=O)(=O)c1ccc(NC(=O)c2cccc([N+](=O)[O-])c2)cc1 [I-993, N-(4-(N-(2-methoxyphenyl)sulfamoyl)phenyl)-3-nitrobenzamide]
50% | O=C(Nc1cccc(Br)c1)c1ccc(NS(=O)(=O)c2cccc([N+](=O)[O-])c2)cc1 [I-940, N-(3-bromophenyl)-4-((3-nitrophenyl)sulfonamido)benzamide]
62% | Cc1ccc(NC(=O)c2ccc(S(=O)(=O)Nc3ccc(Cl)cc3)cc2)cc1S(=O)(=O)N(C)C [I-390, 4-(N-(4-chlorophenyl)sulfamoyl)-N-(3-(N,N-dimethylsulfamoyl)-4-methylphenyl)benzamide]
69% | O=C(Nc1cccc(NS(=O)(=O)c2ccc(Cl)cc2)c1)c1cc(F)ccc1F [I-212, N-(3-((4-chlorophenyl)sulfonamido)phenyl)-2,5-difluorobenzamide]
61% | CCc1ccccc1NC(=O)c1cccc(S(=O)(=O)N2c3ccccc3CC2C)c1 (stereo not drawn) [I-445, N-(2-ethylphenyl)-3-((2-methylindolin-1-yl)sulfonyl)benzamide]
58% | Cc1ccc(NC(=O)c2ccc(NS(=O)(=O)c3ccc(F)cc3)cc2)cc1C [I-918, N-(3,4-dimethylphenyl)-4-((4-fluorophenyl)sulfonamido)benzamide]
49% | Cc1ccc2c(c1)CCCN2C(=O)c1cccc(S(=O)(=O)Nc2ccccc2F)c1 [I-574, N-(2-fluorophenyl)-3-(6-methyl-1,2,3,4-tetrahydroquinoline-1-carbonyl)benzenesulfonamide]
50% | COc1ccc(NS(=O)(=O)c2cccc(NC(=O)c3cc4c(s3)CCC4)c2)cc1 [I-742, N-(3-(N-(4-methoxyphenyl)sulfamoyl)phenyl)-5,6-dihydro-4H-cyclopenta[b]thiophene-2-carboxamide]
67% | O=C(Nc1ccc(OC(F)F)cc1)c1ccccc1S(=O)(=O)Nc1cccc(C(F)(F)F)c1 [I-224, N-(4-(difluoromethoxy)phenyl)-2-(N-(3-(trifluoromethyl)phenyl)sulfamoyl)benzamide]
51% | O=C(Nc1ccc2c(c1)OCCCO2)c1ccc(Cl)c(S(=O)(=O)N2CCc3ccccc32)c1 [I-565, 4-chloro-N-(3,4-dihydro-2H-benzo[b][1,4]dioxepin-7-yl)-3-(indolin-1-ylsulfonyl)benzamide]
68% | Cc1ccc(F)cc1S(=O)(=O)Nc1cccc(C(=O)Nc2cccc(C#N)c2)c1 [I-318, N-(3-cyanophenyl)-3-((5-fluoro-2-methylphenyl)sulfonamido)benzamide]
60% | N#Cc1ccc(C(=O)Nc2cccc(S(=O)(=O)Nc3ccc(Br)cc3)c2)cc1 [I-332, N-(3-(N-(4-bromophenyl)sulfamoyl)phenyl)-4-cyanobenzamide]
62% | O=C(c1cccc(S(=O)(=O)Nc2cccc(C(F)(F)F)c2)c1)N1CCCc2ccccc21 [I-441, 3-(1,2,3,4-tetrahydroquinoline-1-carbonyl)-N-(3-(trifluoromethyl)phenyl)benzenesulfonamide]
52% | Cc1cccc(NS(=O)(=O)c2cc(C(=O)Nc3cccc(C#N)c3)c(Cl)cc2Cl)c1 [I-560, 2,4-dichloro-N-(3-cyanophenyl)-5-(N-(m-tolyl)sulfamoyl)benzamide]
62% | COc1ccc(S(=O)(=O)N2CCc3ccccc32)cc1C(=O)Nc1ccc(OC(F)F)c(Cl)c1 [I-440, N-(3-chloro-4-(difluoromethoxy)phenyl)-5-(indolin-1-ylsulfonyl)-2-methoxybenzamide]
53% | CCCCc1nnc(NC(=O)c2cccc(NS(=O)(=O)c3ccc(C)c(F)c3)c2)s1 [I-647, N-(5-butyl-1,3,4-thiadiazol-2-yl)-3-((3-fluoro-4-methylphenyl)sulfonamido)benzamide]
30% | Cn1cc(C(=O)Nc2cccc(S(=O)(=O)Nc3ccc(Br)cc3)c2)cn1 [I-335, N-(3-(N-(4-bromophenyl)sulfamoyl)phenyl)-1-methyl-1H-pyrazole-4-carboxamide]
64% | O=C(Nc1ccc(SC(F)F)cc1)c1ccc(NS(=O)(=O)c2cccc([N+](=O)[O-])c2)cc1 [I-901, N-(4-((difluoromethyl)thio)phenyl)-4-((3-nitrophenyl)sulfonamido)benzamide]
54% | COc1ncccc1C(=O)Nc1cccc(S(=O)(=O)Nc2ccc(Cl)cc2)c1 [I-733, N-(3-(N-(4-chlorophenyl)sulfamoyl)phenyl)-2-methoxynicotinamide]
